For test [1], the system named is IgG from human donors (anti-AAV antibodies). Briefly: Screen for anti-AAV antibodies in human sera based on cyclic 14-amino-acid AAV peptides on microarrays (Table 2). It is filed as binding. Further details: key: X: the deduplicated aggregate of the respective top 50 peptide hits for each donor was compiled and designated as group I. As to conditions: human donor IgG; circularized AAV peptides; top 50 peptide hits for each donor. The method, then: More than 1200 cyclic peptides derived from the sequences of human and rhesus monkey AAV sequences and artificial AAV sequences according to Table 2 and with a sequence length of 14 amino-acids each were synthesized.
Samples obtained from human donors were screened for antibodies against these AAV-derived peptides immobilized on microarrays. To this end, IgG was prepared from blood obtained from the human donors by protein G purification. Each IgG sample was incubated with the peptide microarrays and Ig binding signals were detected by fluorescence. All antibody binding signals to the peptides on the arrays were background subtracted and ranked for each sample and a deduplicated aggregate of the respective top 250 peptide hits for each donor with the corresponding protein sequence of origin (as obtained from UniProt or other sources) was compiled (designated as group II). Further, the deduplicated aggregate of the respective top 50 peptide hits for each donor was compiled and designated as group I.
Altogether, group I contains 47 distinct peptide hits (assigned to the corresponding AAV vectors in Table 2) and group II yielded 172 distinct peptide hits. Evidently, group I is a subset of group II.

Test [2] relates to polyclonal antibody ab6982. Description: Epitope mapping of polyclonal antibody ab6982 against cyclic peptides of Ad5 fiber and hexon (peptide array). It is filed as binding, rabbits. As to conditions: cyclic peptides of fiber protein (clusters 1-7).
In test [3] the test system is IgG from human donors (anti-AAV antibodies). Description: Screen for anti-AAV antibodies in human sera, 2452 linear 15-amino-acid AAV peptides on microarrays (Table 1). It is filed as binding. More on the design: key to group I: X: the deduplicated aggregate of the respective top 10 peptide hits for each donor was compiled and designated as group I; key to group II: X: the deduplicated aggregate of the respective top 25 peptide hits for each donor was compiled and designated as group II; key to group III: X: the deduplicated aggregate of the respective top 50 peptide hits for each donor was compiled and designated as group III. As to conditions: human donor IgG binding to linear 15-amino-acid AAV peptides on microarray, fluorescence; for group II: membership in deduplicated aggregate of top 25 peptide hits for each donor; for group III: membership in deduplicated aggregate of top 50 peptide hits for each donor. An outline of the steps: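 Protein G-purified IgG from human donor blood incubated with microarrays of 2452 linear 15-mer peptides from 16 AAVs; binding read by fluorescence. Background-subtracted signals ranked per donor, with top 10, 25, 50 and 250 hits pooled and deduplicated into groups I-IV.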

For the substance “1892 (DSQWLGDRVITTST; REGION 1..14: note = peptide derived from viral capsid protein) [compound 1892]”, the “group I” value in test [1] is “X”.

Consider “1893 (DTNGVYSEPRPIGT; REGION 1..14: note = peptide derived from viral capsid protein) [compound 1893]”, for which the “group I” value in test [1] is recorded as “X”.

Turning to “1895 (ANNLTSTVQIFADS; REGION 1..14: note = peptide derived from viral capsid protein) [compound 1895]”, the “group I” value in test [1] is recorded as “X”.

With “1896 (KIFNIQVKEVTTSN; REGION 1..14: note = peptide derived from viral capsid protein) [compound 1896]”, in test [1], the “group I” value was “X”.

With “1897 (GNTSQQQTDRNAFY; REGION 1..14: note = peptide derived from viral capsid protein) [compound 1897]”, the “group I” value in test [1] is reported as “X”.

Turning to “1898 (LEDNLSEGIREWWD; REGION 1..14: note = peptide derived from viral capsid protein) [compound 1898]”, the “group I” value in test [1] is “X”.

Regarding “1899 (SESVPDPQPIGEPP; REGION 1..14: note = peptide derived from viral capsid protein) [compound 1899]”, the “group I” value in test [1] was “X”.

In the case of “1900 (LIKNTPVPADPPTT; REGION 1..14: note = peptide derived from viral capsid protein) [compound 1900]”, the “group I” value in test [1] is given as “X”.

Take “1901 (PQYGYLTLNNGSQA; REGION 1..14: note = peptide derived from viral capsid protein) [compound 1901]”: the “group I” value in test [1] is on record as “X”.

In the case of “1902 (DEEEIRTTNPVATE; REGION 1..14: note = peptide derived from viral capsid protein) [compound 1902]”, in test [1], the “group I” value is on record as “X”.

Consider “1903 (NYNKSVNVDFTVDT; REGION 1..14: note = peptide derived from viral capsid protein) [compound 1903]”, for which the “group I” value in test [1] is “X”.

In the case of “1904 (YHLNGRDSLVNPGP; REGION 1..14: note = peptide derived from viral capsid protein) [compound 1904]”, the “group I” value in test [1] is recorded as “X”.

“1907 (IFNIQVKEVTTSNG; REGION 1..14: note = peptide derived from viral capsid protein) [compound 1907]”: the “group I” value in test [1] is given as “X”.

For “1910 (FNIQVKEVTTNDGV; REGION 1..14: note = peptide derived from viral capsid protein) [compound 1910]”, the “group I” value in test [1] is on record as “X”.

In the case of “1912 (PQILIKNTPVPADP; REGION 1..14: note = peptide derived from viral capsid protein) [compound 1912]”, in test [1], the “group I” value is reported as “X”.

As for “1913 (QLKAGDNPYLRYNH; REGION 1..14: note = peptide derived from viral capsid protein) [compound 1913]”, the “group I” value in test [1] is listed as “X”.

Turning to “1914 (SFITQYSTGQVSVE; REGION 1..14: note = peptide derived from viral capsid protein) [compound 1914]”, the “group I” value in test [1] is “X”.

In the case of TVQVFTDSDYQLPY [SEQ ID NO: 2019], the “antibody binding signal ranking from the microarray experiment” value (from here on “antibody binding signal ranking”) in test [2] is 013. In addition, in test [3], the “group II” value was “X” and the “group III” value is on record as “X”.

Turning to “VMITDEEEIRTTNP (REGION 1..14: note = peptide derived from viral capsid protein) [SEQ ID NO: 1998]”, in test [2], the “antibody binding signal ranking” value is given as 052. Besides, the “group I” value in test [3] (membership in deduplicated aggregate of top 10 peptide hits for each donor) is reported as “X”. In test [3], the “group II” value is reported as “X” and the “group III” value is “X”.

Turning to YNLQEIVPGSVWME [SEQ ID NO: 2063], the “antibody binding signal ranking” value in test [2] is given as 143. In test [3], the “group II” value is “X” and the “group III” value was “X”.

Values taken from patent publication US20250213707A1, “COMPOUND FOR INCREASING EFFICACY OF ONCOLYTIC VIRUSES” (ABLEVIA BIOTECH GMBH, priority 2022, published 2025).
